Test results taken from patent US20210317072A1, “H2O CRYSTAL FORMS OF A TCA CYCLE INTERMEDIATE CONJUGATE” (IMBRIA PHARMACEUTICALS, INC., priority 2020, published 2021).

Columns and labels:
Assay type in all cases: physicochemical
[1] = Slurry conversion at room temperature, solids isolated for XRPD analysis
Experimental: (§1) For with Type A, polymorph screening experiments were set up under 32 conditions using methods of solid vapor diffusion, slurry conversion at room temperature, slurry conversion at 50° C., and temperature cycling. Polymorph screening experiments were performed using different crystallization or solid transition methods.
(§2) Slurry conversion experiments were conducted at room temperate and at 50° C. in different solvent systems. Solids were isolated for XRPD analysis.

[2] = Slurry conversion at 50° C., solids isolated for XRPD analysis
Experimental: as §1, §2

[3] = Solid vapor diffusion, precipitates isolated for XRPD analysis
Experimental: as §1
Solid vapor diffusion experiments were conducted in different solvent conditions. The precipitates were isolated for XRPD analysis.

[4] = Temperature cycling polymorph screening; conditions: summary of 6 experiments
Experimental: as §1

[5] = Polymorph screening under 32 conditions / form stability
Source text: A comprehensive polymorph screening for a TCA intermediate conjugated to an amino acid which has the structure of Formula (X) was undertaken. The TCA conjugate starting material was characterized by X-ray powder diffraction (XRPD). […] One unique XRPD patterns was observed, which was Type A. Type A is a stable Type At the ambient temperature and humidity.
as §1

N[C@@H](COC(=O)CCC(=O)O)C(=O)O [Type A]
Type A + peak: Solid Form ([1]; CAN (exp. 818135-04-A5)) | Solid Form ([1]; DCM (exp. 818135-04-A6)) | Solid Form ([1]; IPAc (exp. 818135-04-A3)) | Solid Form ([1]; MTBE (exp. 818135-04-A4)) | Solid Form ([1]; THF/H2O (0.956:0.044, aW~0.4) (exp. 818135-04-A9)) | Solid Form ([2]; slurry at 50° C., n-heptane (exp. 818135-05-A4))
Type A, Type A + peak: Crystal Type ([1]; summary of 11 experiments) | Crystal Type ([2]; slurry at 50° C., summary of 9 experiments) | Crystal Type [4] | Crystal Type ([5]; total, all 32 screening experiments)
stable: Stability of the crystal form ([5]; ambient temperature and humidity)
Type A: Solid Form ([1]; Acetone (exp. 818135-04-A2)) | Solid Form ([1]; H2O (exp. 818135-04-A7)) | Solid Form ([1]; MeOH (exp. 818135-04-A1)) | Solid Form ([1]; THF/H2O (0.87:0.13, aW~0.8) (exp. 818135-04-A11)) | Solid Form ([1]; THF/H2O (0.924:0.076, aW~0.6) (exp. 818135-04-A10)) | Solid Form ([1]; THF/H2O (0.98:0.02, aW~0.2) (exp. 818135-04-A8)) | Solid Form ([2]; slurry at 50° C., 1,4-dioxane (exp. 818135-05-A6)) | Solid Form ([2]; slurry at 50° C., 2-Me THF (exp. 818135-05-A3)) | Solid Form ([2]; slurry at 50° C., CHCL3 (exp. 818135-05-A7)) | Solid Form ([2]; slurry at 50° C., EtOAc (exp. 818135-05-A2)) | Solid Form ([2]; slurry at 50° C., EtOH (exp. 818135-05-A1)) | Solid Form ([2]; slurry at 50° C., MEK (exp. 818135-05-A5)) | Solid Form ([2]; slurry at 50° C., Toluene (exp. 818135-05-A9)) | Solid Form ([3]; anti-solvent Acetone (exp. 818135-06-A5)) | Solid Form ([3]; anti-solvent DCM (exp. 818135-06-A1)) | Solid Form ([3]; anti-solvent DMSO (exp. 818135-06-A4)) | Solid Form ([3]; anti-solvent EtOH (exp. 818135-06-A2)) | Solid Form ([3]; anti-solvent H2O (exp. 818135-06-A6)) | Solid Form ([3]; anti-solvent THF (exp. 818135-06-A3)) | Crystal Type ([3]; summary of 6 experiments)
